Where two headings read alike, the source gives them in different places.
How the values were obtained:
isolated helical DNA = assay: ΔTm of isolated helical DNA (DNA-binding); settings: difference in DNA melting temperature with and without drug; ~1° weak binding if any, ≥5° significant binding
Text: (§1) Sufficient samples of all but compound (VIII) have been obtained for biological screening, and recent results of tests both in vitro and in vivo are shown in Table 2 below. […] The in vitro results are surprising and appear to be highly significant in that there is an abrupt and unexpected loss of DNA-binding properties in going from N-benzyl to N,N-dibenzyl compounds. ΔTm is the most direct measure of DNA-binding but the inhibition of nucleic acid synthesis is also lost. Most of the anthracyclines bind to DNA, presumably by an intercalation mechanism and are mutagenic. In these N,N-dibenzyl compounds the anti-tumor activity in the mouse screen is retained but the DNA-binding properties are lost.
^b ΔTm values represent the difference in temperature
between that at which the DNA denatures (or melts) without the drug and
that at which denaturing occurs in the presence of the drug;

L1210 Cells [1] = assay: Inhibition of RNA synthesis in L1210 cells; assay type: cell-based; settings: Mus musculus
Text: (§2) ^c Assay described in G. Tong, W. W. Lee, D. R. Black and D. W. Henry

L1210 Cells [2] = assay: Inhibition of DNA synthesis in L1210 cells; assay type: cell-based; settings: Mus musculus
Text: as §2

leukemia P388 = assay: Ip P388 leukemia in mice, survival time (NCI Protocol 1,200); assay type: in vivo; settings: for response vs control in vivo at 37.5 mg/kg: q4d 5,9,13, 37.5 mg/kg (optimum dose); for response vs control in vivo at 8 mg/kg: q4d 5,9,13, 8 mg/kg
Text: as §1
Highest Mean T/C vs P388 in
^d Ip P388 leukemia treated ip on QD1-9 and Q4D 5,9,13 schedules
according to standard NCI protocols. Assay described in R. I. Geran, N. H
Greenberg, M. M. MacDonald, A. M. Schumacker and B. J. Abbott, Cancer
Chemother. Rep., Part 3, 3, (No. 2), 9 (1972), Protocol 1,200. T/C = rati
of survival time of treated mice to that of untreated controls times 100.
Untreated controls survive about 9 days. For Dnm and Adm, % T/C values ar
means from several dozen tests, with standard deviation up to ±40. For
the Nbenzyl compounds, % T/C values are means from all the tests (1 to 3)
so far, at the optimum dose.

[3] = L1210 cells, RNA synthesis, read-out: Inhib of Synth, RNA, ED50
[4] = L1210 cells, DNA synthesis, read-out: Inhib of Synth, DNA, ED50
[5] = Mus musculus, P388, ip, mean from 1 to 3 tests, read-out: Highest Mean T/C vs P388 in Mice
[6] = L1210, read-out: Inhib of Synth, RNA, ED50
[7] = L1210, read-out: Inhib of Synth, DNA, ED50
[8] = Mus musculus, P388, ip, read-out: Highest Mean T/C vs P388 in Mice
[9] = Mus musculus, P388, ip, qd 1-9, 6.25 mg/kg (optimum dose), mean from 1 to 3 tests, read-out: Highest Mean T/C vs P388 in Mice
[10] = Mus musculus, P388, ip, mean from several dozen tests, SD up to ±40, read-out: Highest Mean T/C vs P388 in Mice

**Q.** For `COc1cccc2c1C(=O)c1c(O)c3c(c(O)c1C2=O)C[C@@](O)(C(C)=O)C[C@@H]3O[C@H]1C[C@H](N(Cc2ccccc2)Cc2ccccc2)[C@H](O)[C@H](C)O1` [Compound V, N,N-Dibenzyldaunomycin], which ΔTm (isolated helical DNA) is on record?
**A.** The ΔTm was 1.35 °C.

**Q.** What about the IC50 (L1210 Cells [1]; [3]) of the same compound?
**A.** Its IC50 is 10 µM.

**Q.** What about the IC50 (L1210 Cells [2]; [4]) of the same compound?
**A.** Its IC50 is > 100 µM.

**Q.** And the response vs control in vivo at 37.5 mg/kg (leukemia P388; [5])?
**A.** Its response vs control in vivo at 37.5 mg/kg is 227%.

**Q.** What about the response vs control in vivo at 25 mg/kg (leukemia P388; Mus musculus, P388, ip, qd 1-9, 25 mg/kg (optimum dose), mean from 1 to 3 tests, read-out: Highest Mean T/C vs P388 in Mice) of the same compound?
**A.** Its response vs control in vivo at 25 mg/kg is 259%.

**Q.** And the “activity against leukemia P388 in mice (in words)” value (leukemia P388; ip, mice)?
**A.** The value was “clearly the best”.

**Q.** Which results are given for `COc1cccc2c1C(=O)c1c(O)c3c(c(O)c1C2=O)C[C@@](O)(C(C)O)C[C@@H]3O[C@H]1C[C@H](N(Cc2ccccc2)Cc2ccccc2)[C@H](O)[C@H](C)O1` (stereo partly shown) [Compound VI, N,N-Dibenzyl-13-dihydrodaunomycin]?
**A.** ΔTm (isolated helical DNA): 0.6 °C; IC50 (L1210 Cells [1]; [3]): 7.6 µM; IC50 (L1210 Cells [2]; L1210 cells, DNA synthesis, (susp), read-out: Inhib of Synth, DNA, ED50 (susp)): 220 µM; response vs control in vivo at 50 mg/kg (leukemia P388; Mus musculus, P388, ip, q4d 5,9,13, 50 mg/kg (optimum dose), mean from 1 to 3 tests, read-out: Highest Mean T/C vs P388 in Mice): 233%; response vs control in vivo at 40 mg/kg (leukemia P388; Mus musculus, P388, ip, qd 1-9, 40 mg/kg (optimum dose), mean from 1 to 3 tests, read-out: Highest Mean T/C vs P388 in Mice): 229%

**Q.** For `COc1cccc2c1C(=O)c1c(O)c3c(c(O)c1C2=O)C[C@@](O)(C(=O)CO)C[C@@H]3O[C@H]1C[C@H](N(Cc2ccccc2)Cc2ccccc2)[C@H](O)[C@H](C)O1` [Compound VII, N,N-Dibenzyladriamycin], which ΔTm (isolated helical DNA) is on record?
**A.** Its ΔTm is -1.2 °C.

**Q.** And the IC50 (L1210 Cells [1]; [6])?
**A.** The IC50 was 4.8 µM.

**Q.** And the IC50 (L1210 Cells [2]; [7])?
**A.** Its IC50 is 110 µM.

**Q.** What about the response vs control in vivo at 6.25 mg/kg (leukemia P388; [8]) of the same compound?
**A.** The response vs control in vivo at 6.25 mg/kg was 175%.

**Q.** What does the source list for `COc1cccc2c1C(=O)c1c(O)c3c(c(O)c1C2=O)C[C@@](O)(C(C)=O)C[C@@H]3O[C@H]1C[C@H](NCc2ccccc2)[C@H](O)[C@H](C)O1` [I, N-Benzyldaunomycin]?
**A.** ΔTm (isolated helical DNA): 10.2 °C; IC50 (L1210 Cells [1]; [6]): 0.17 µM; IC50 (L1210 Cells [2]; [7]): 1.6 µM; response vs control in vivo at 6.25 mg/kg (leukemia P388; [8]): 187%; response vs control in vivo at 18.8 mg/kg (leukemia P388; [8]): 226%

**Q.** `COc1cccc2c1C(=O)c1c(O)c3c(c(O)c1C2=O)C[C@@](O)(C(C)O)C[C@@H]3O[C@H]1C[C@H](NCc2ccccc2)[C@H](O)[C@H](C)O1` (stereo partly shown) [II, N-Benzyl-13-dihydrodaunomycin] was tested. Which ΔTm (isolated helical DNA) did it give?
**A.** The ΔTm was 6.25 °C.

**Q.** And the IC50 (L1210 Cells [1]; [3])?
**A.** Its IC50 is 0.32 µM.

**Q.** And the IC50 (L1210 Cells [2]; [4])?
**A.** Its IC50 is 1.7 µM.

**Q.** What about the response vs control in vivo at 6.25 mg/kg (leukemia P388; [9]) of the same compound?
**A.** Its response vs control in vivo at 6.25 mg/kg is 226%.

**Q.** Which ΔTm (isolated helical DNA) does the source give for `COc1cccc2c1C(=O)c1c(O)c3c(c(O)c1C2=O)C[C@@](O)(C(=O)CO)C[C@@H]3O[C@H]1C[C@H](NCc2ccccc2)[C@H](O)[C@H](C)O1` [III, N-Benzyladriamycin] here?
**A.** The ΔTm was 11.3 °C.

**Q.** And the IC50 (L1210 Cells [1]; [3])?
**A.** Its IC50 is 0.09 µM.

**Q.** What about the IC50 (L1210 Cells [2]; [4]) of the same compound?
**A.** The IC50 was 0.65 µM.

**Q.** And the response vs control in vivo at 18.8 mg/kg (leukemia P388; Mus musculus, P388, ip, q4d 5,9,13, 18.8 mg/kg (optimum dose), mean from 1 to 3 tests, read-out: Highest Mean T/C vs P388 in Mice)?
**A.** Its response vs control in vivo at 18.8 mg/kg is 200%.

**Q.** What about the response vs control in vivo at 6.25 mg/kg (leukemia P388; [9]) of the same compound?
**A.** The response vs control in vivo at 6.25 mg/kg was 224%.

**Q.** `COc1cccc2c1C(=O)c1c(O)c3c(c(O)c1C2=O)C[C@@](O)(C(O)CO)C[C@@H]3O[C@H]1C[C@H](NCc2ccccc2)[C@H](O)[C@H](C)O1` (stereo partly shown) [IV, N-Benzyl-13-dihydroadriamycin] was tested. Which ΔTm (isolated helical DNA) did it give?
**A.** The ΔTm was 7.6 °C.

**Q.** And the IC50 (L1210 Cells [1]; [3])?
**A.** Its IC50 is 0.29 µM.

**Q.** And the IC50 (L1210 Cells [2]; [4])?
**A.** Its IC50 is 1.4 µM.

**Q.** What about the response vs control in vivo at 37.5 mg/kg (leukemia P388; [5]) of the same compound?
**A.** The response vs control in vivo at 37.5 mg/kg was 143%.

**Q.** What about the response vs control in vivo at 1.56 mg/kg (leukemia P388; Mus musculus, P388, ip, qd 1-9, 1.56 mg/kg (optimum dose), mean from 1 to 3 tests, read-out: Highest Mean T/C vs P388 in Mice) of the same compound?
**A.** The response vs control in vivo at 1.56 mg/kg was 196%.

**Q.** What does the source list for `COc1cccc2c1C(=O)c1c(O)c3c(c(O)c1C2=O)C[C@@](O)(C(C)=O)C[C@@H]3O[C@H]1C[C@H](N)[C@H](O)[C@H](C)O1` [IX, Daunomycin, reference compound]?
**A.** IC50 (L1210 Cells [1]; [3]): 0.3 µM; IC50 (L1210 Cells [2]; [4]): 1 µM; response vs control in vivo at 8 mg/kg (leukemia P388; [10]): 134%; response vs control in vivo at 0.5 mg/kg (leukemia P388; Mus musculus, P388, ip, qd 1-9, 0.5 mg/kg, mean from several dozen tests, SD up to ±40, read-out: Highest Mean T/C vs P388 in Mice): 167%

**Q.** What does the source list for `COc1cccc2c1C(=O)c1c(O)c3c(c(O)c1C2=O)C[C@@](O)(C(=O)CO)C[C@@H]3O[C@H]1C[C@H](N)[C@H](O)[C@H](C)O1` [X, Adriamycin, reference compound]?
**A.** ΔTm (isolated helical DNA): 13.4 °C; IC50 (L1210 Cells [1]; [3]): 0.67 µM; IC50 (L1210 Cells [2]; [4]): 1.5 µM; response vs control in vivo at 8 mg/kg (leukemia P388; [10]): 157%; response vs control in vivo at 1 mg/kg (leukemia P388; Mus musculus, P388, ip, qd 1-9, 1.0 mg/kg, mean from several dozen tests, SD up to ±40, read-out: Highest Mean T/C vs P388 in Mice): 193%
